Source: publication PMC11681159, “Bee pollen peptides as potent tyrosinase inhibitors with anti-melanogenesis effects in murine b16f10 melanoma cells and zebrafish embryos” (Scientific Reports, 2024)
Ends that are not written are not given here.

Experiments:
[1] = system: B16F10 melanoma cells; test: Melanin content assay in B16F10 cells; type: cell-based, mouse; settings: VY-9 1.6 µM, 48 h, 405 nm
Protocol: In order to assess melanin content, culture flasks were used to grow B16F10 cells (1 × 10^5 cells/flask) for 24 h. […] Cell harvesting was conducted by trypsinization and the cells were then rinsed twice in cold PBS. The cell pellets were then dissolved in 0.3 mL of 1 N NaOH to produce solutions which were heated to 90 °C for a one-hour period. The lysates were then placed in a centrifuge for 10 min at 3,000 × g whereupon a microplate reader was used to assess the melanin quantity at 405 nm. The protein content in the supernatant was evaluated using the Bradford protein assay with the findings presented in the form of a percentage of the control. Arbutin (0.2 mM) served as the positive control. Each trial was carried out in triplicate, with results presented in the form of mean ± standard deviation.

[2] = system: TYR in B16F10 melanoma cells; test: Cellular TYR assay; type: cell-based, mouse; settings: VY-9 1.6 µM, 48 h, L-DOPA, 490 nm
Protocol: In order to assess the rate of oxidation for L-DOPA, culture flasks were used to first grow B16F10 cells (1 × 10^5 cells/flask) for 24 h. […] Cell harvesting was conducted by trypsinization and the cells were then rinsed twice in cold PBS. In the next step, PBS buffer (0.2 mL, pH 6.8) which contained 1% (w/v) Triton X-100 and 1 mM PMSF was introduced to the lysed cell pellets, whereupon amounts of 100 µL of the lysed cells were added to a 96-well plate by pipette, along with 100 µL of 2 mM L-DOPA. This was followed by a one-hour incubation period while the temperature was maintained at 37 °C. A microplate reader was then used to detect the formation of dopachrome in the mixture at 490 nm. The findings are presented in terms of percentage of the control, while arbutin (0.2 mM) served as the positive control. Each test was carried out in triplicate, with the findings presented in the form of mean ± standard deviation.

[3] = system: Trp-2; test: qRT-PCR, Trp-2 mRNA; type: cell-based, mouse; settings: B16F10, 48 h
Protocol: (§1) A 6-well plate was used to seed B16F10 cells at 1 × 10^5 cells per well prior to overnight incubation in a 5% CO2 humid atmosphere at 37°C. […] Harvesting was conducted via removal of the supernatant, and the cells were rinsed twice in PBS (phosphate-buffered saline). The PureLink™RNA Mini Kit (Invitrogen™, USA) was then used to extract total RNA in line with the guidance of the manufacturer. RNA concentration was assessed at 260 nm with a NanoDrop 2000 UV-Vis spectrophotometer (Thermo Fisher Scientific, Inc.). Oligo-dT primers and a Precision nanoScript II Reverse Transcription Kit (PrimerDesign, Camberley, UK) were used to perform the reverse transcription of 1 µg of total RNA to cDNA in line with the guidance of the manufacturer. MyGo Pro®Real time PCR apparatus (IT-IS International Ltd., Stokesley, UK) was then used to perform the qRT-PCR assays in which 20 µL of PCR reaction contained 1 µL of cDNA, 7 µL of ultrapure water, 1 µL of each primer […], and 10 µL of 2×qPCRBIO SyGreen Mix (PCR Biosystems Ltd, London, UK). This research made use of the following PCR primers: Gapdh forward 5’-[…]-3’, Gapdh reverse 5’-[…]-3’, Tyr forward 5’-[…]-3’, Tyr reverse 5’-[…]-3’, Trp-1 forward 5’-[…]-3’, Trp-1 reverse 5’-[…]-3’, Trp-2 forward 5’-[…]-3’, Trp-2 reverse 5’-[…]-3’, Mitf forward 5’-[…] − 3’, Mitf reverse 5’-[…]-3’. The initial stage of the process of qRT-PCR amplification was the activation step of thermal treatment where a temperature of 95 °C was used for 2 min, with 45 subsequent cycles comprising 10 s at 95 °C, 20 s at 60 °C, and 30 s at 72 °C, before embarking upon the final melting curve from 60 to 97 °C with 1 min for each step. The relative gene expression level could then be calculated via the cycle threshold (Ct) value, while the role of endogenous control for data normalization was occupied by Gapdh (the housekeeping gene). To calculate relative gene expression, the formula given below can be employed:2 [drawing 2]
(§2) where the heightened threshold cycle for the target gene is given as ΔΔCt.

[4] = system: Tyr; test: qRT-PCR, Tyr mRNA; type: cell-based, mouse; settings: B16F10, 48 h
Protocol: A 6-well plate was used to seed B16F10 cells at 1 × 10^5 cells per well prior to overnight incubation in a 5% CO2 humid atmosphere at 37°C. […] Harvesting was conducted via removal of the supernatant, and the cells were rinsed twice in PBS (phosphate-buffered saline). The PureLink™RNA Mini Kit (Invitrogen™, USA) was then used to extract total RNA in line with the guidance of the manufacturer. RNA concentration was assessed at 260 nm with a NanoDrop 2000 UV-Vis spectrophotometer (Thermo Fisher Scientific, Inc.). Oligo-dT primers and a Precision nanoScript II Reverse Transcription Kit (PrimerDesign, Camberley, UK) were used to perform the reverse transcription of 1 µg of total RNA to cDNA in line with the guidance of the manufacturer. MyGo Pro®Real time PCR apparatus (IT-IS International Ltd., Stokesley, UK) was then used to perform the qRT-PCR assays in which 20 µL of PCR reaction contained 1 µL of cDNA, 7 µL of ultrapure water, 1 µL of each primer […], and 10 µL of 2×qPCRBIO SyGreen Mix (PCR Biosystems Ltd, London, UK). […] The relative gene expression level could then be calculated via the cycle threshold (Ct) value, while the role of endogenous control for data normalization was occupied by Gapdh (the housekeeping gene). […]

[5] = system: Mitf; test: qRT-PCR, Mitf mRNA; type: cell-based, mouse; settings: B16F10, 48 h
Protocol: as §1, §2

[6] = target: T1, mushroom TYR (Agaricus bisporus, UniProt C7FF04); test: Kinetic study, Lineweaver-Burk, di-phenolase; type: biochemical; settings: Km rose, Vmax unchanged
T1 construct: purchased Sigma-Aldrich, Merck T3824
T1 sequence (C7FF04 2-392): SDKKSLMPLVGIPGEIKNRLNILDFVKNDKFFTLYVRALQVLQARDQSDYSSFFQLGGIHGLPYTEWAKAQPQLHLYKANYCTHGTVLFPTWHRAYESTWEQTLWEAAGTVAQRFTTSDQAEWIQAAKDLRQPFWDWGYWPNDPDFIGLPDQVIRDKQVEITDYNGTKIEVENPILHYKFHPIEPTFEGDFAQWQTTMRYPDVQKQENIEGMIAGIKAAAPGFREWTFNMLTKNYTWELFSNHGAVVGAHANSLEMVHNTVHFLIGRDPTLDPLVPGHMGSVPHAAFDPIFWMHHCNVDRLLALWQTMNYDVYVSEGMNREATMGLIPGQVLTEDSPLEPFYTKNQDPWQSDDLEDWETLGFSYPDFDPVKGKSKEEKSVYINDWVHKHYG
Protocol: It is necessary to determine the type of TYR inhibitory activity which takes place. This can be achieved through a modified version of an assay described by Feng et al.[39]. The process starts by dissolving the peptide VY-9 in deionized water at various concentrations (0, 0.25, 0.5, and 1 mM). Each VY-9 peptide sample at each concentration (35 µL) was combined 15 µL of mushroom TYR (333 U/mL in 50 mM PBS pH 6.8) prior to 5 min of incubation at 25 °C. Subsequently, various concentrations of substrate were introduced, namely 0–2 mM L-tyrosine in the case of mono-phenolase, and 0–12 mM L-DOPA for di-phenolase. These new mixtures underwent further incubation for 30 min at the same temperature of 25 °C. Upon completion, a spectrophotometer was used to measure the absorbance and determine the inhibitory activity at 490 nm. Lineweaver-Burk plots were then used in calculating Km and Vmax, the kinetic parameters. Km is indicated by the intersection point on the X-axis while Vmax is indicated by the intersection point on the Y-axis in the mode of TYR inhibition under examination. Construction of the plots linked the substrate concentration reciprocal on the X-axis and the absorbance reciprocal (at 490 nm) on the Y-axis, to represent the starting rate for the enzymatic reaction. […]

## VDGYPAAGY [VY-9, Val-Asp-Gly-Tyr-Pro-Ala- Ala-Gly-Tyr]
[1]
  reduction in melanin content: 52.31%
[2]
  cellular TYR activity, rate of inhibition: 44.88%
[3]; 0.2 µM
  TRP-2 mRNA level vs control: decreased slightly compared to the control
[3]; 1.6 µM
  Trp-2 mRNA expression vs control: significantly reduced the expression levels of all measured genes
[3]; vs control
  concentration from which Trp-2 mRNA expression decreased: 0.2 µM
[3]; VY-9 1.6 µM vs arbutin 0.2 mM
  Trp-2 mRNA expression vs arbutin: significantly decreased compared to arbutin
[4]; 1.6 µM
  Tyr mRNA expression vs control: significantly reduced the expression levels of all measured genes
[4]; vs control
  concentration from which Tyr mRNA expression decreased: 0.4 µM
[5]; 1.6 µM
  Mitf mRNA expression vs control: significantly reduced the expression levels of all measured genes
[5]; vs control
  concentration from which Mitf mRNA expression decreased: 0.2 µM
[5]; VY-9 1.6 µM vs arbutin 0.2 mM
  Mitf mRNA expression vs arbutin: significantly decreased compared to arbutin
[6]
  inhibition type, di-phenolase: competitive inhibitor
